Key:
[1] = molecular target: T1, CDK9/CycT1 (Homo sapiens, UniProt P50750); test: CDK9/CycT1 high ATP kinase assay (TR-FRET, 2 mM ATP); format: biochemical; settings: read-out: CDK9/CyclinT1, 2 mM ATP (high ATP) IC50-[mol/l] (median)
T1 construct: Recombinant full-length His-tagged human CDK9 and CycT1, expressed in insect cells; His; purchased Life Technologies PV4131; host or cells: insect cells
Experimental: CDK9/CycT1-inhibitory activity of compounds of the present invention at a high ATP concentration after preincubation of enzyme and test compounds was quantified employing the CDK9/CycT1 TR-FRET assay as described in the following paragraphs.
Recombinant full-length His-tagged human CDK9 and CycT1, expressed in insect cells and purified by Ni-NTA affinity chromatography, were purchased from Life Technologies (Cat. No PV4131). As substrate for the kinase reaction biotinylated peptide biotin-Ttds-YISPLKSPYKISEG (C-terminus in amide form) was used which can be purchased e.g. form the company JERINI peptide technologies (Berlin, Germany).
For the assay 50 nanoL of a 100 fold concentrated solution of the test compound in DMSO was pipetted into either a black low volume 384 well microtiter plate or a black 1536 well microtiter plate (both Greiner Bio-One, Frickenhausen, Germany), 2 microL of a solution of CDK9/CycT1 in aqueous assay buffer [50 millimol/L Tris/HCl pH 8.0, 10 millimol/L MgCl2, 1.0 millimol/L dithiothreitol, 0.1 millimol/L sodium ortho-vanadate, 0.01% (v/v) Nonidet-P40 (Sigma)] were added and the mixture was incubated for 15 min at 22° C. to allow pre-binding of the test compounds to the enzyme before the start of the kinase reaction. Then the kinase reaction was started by the addition of 3 microL of a solution of adenosine-tri-phosphate (ATP, 3.3 millimol/L=> final conc. in the 5 microL assay volume is 2 millimol/L) and substrate (1.25 micromol/L=> final conc. in the 5 microL assay volume is 0.75 micromol/L) in assay buffer and the resulting mixture was incubated for a reaction time of 25 min at 22° C. The concentration of CDK9/CycT1 was adjusted depending of the activity of the enzyme lot and was chosen appropriate to have the assay in the linear range, typical concentrations were in the range of 0.5 microg/ml. The reaction was stopped by the addition of 3 microL of a solution of TR-FRET detection reagents (0.33 micromol/L streptavidine-XL665 [Cisbio Bioassays, Codolet, France] and 1.67 nanomol/L anti-RB(pSer807/pSer8l 1)-antibody from BD Pharmingen [#558389] and 2 nanomol/L LANCE EU-W1024 labeled anti-mouse IgG antibody [Perkin-Elmer, product no. AD0077]) in an aqueous EDTA-solution (167 millimol/L EDTA, 0.2% (w/v) bovine serum albumin in 100 millimol/L HEPES pH 7.5).
(§1) The resulting mixture was incubated 1 h at 22° C. to allow the formation of complex between the phosphorylated biotinylated peptide and the detection reagents. Subsequently the amount of phosphorylated substrate was evaluated by measurement of the resonance energy transfer from the Eu-chelate to the streptavidine-XL. Therefore, the fluorescence emissions at 620 nm and 665 nm after excitation at 350 nm was measured in a TR-FRET reader, e.g. a Pherastar (BMG Labtechnologies, Offenburg, Germany) or a Viewlux (Perkin-Elmer). The ratio of the emissions at 665 nm and at […] was taken as the measure for the amount of phosphorylated substrate. The data were normalised (enzyme reaction without inhibitor=0% inhibition, all other assay components but no enzyme=100% inhibition).

[2] = molecular target: T2, CDK12/CycK (Homo sapiens, UniProt Q9NYV4); test: CDK12/CycK high ATP kinase assay (TR-FRET, 2 mM ATP); format: biochemical; settings: read-out: CDK12/CyclinK, 2 mM ATP (high ATP), IC50-[mol/l] (median)
T2 construct: His-CDK12 (aa Q696-S1082); made in house; host or cells: Hi-5 insect cells (baculovirus co-infection with CAK1)
T2 sequence (Q9NYV4 with tags, fused parts or gaps): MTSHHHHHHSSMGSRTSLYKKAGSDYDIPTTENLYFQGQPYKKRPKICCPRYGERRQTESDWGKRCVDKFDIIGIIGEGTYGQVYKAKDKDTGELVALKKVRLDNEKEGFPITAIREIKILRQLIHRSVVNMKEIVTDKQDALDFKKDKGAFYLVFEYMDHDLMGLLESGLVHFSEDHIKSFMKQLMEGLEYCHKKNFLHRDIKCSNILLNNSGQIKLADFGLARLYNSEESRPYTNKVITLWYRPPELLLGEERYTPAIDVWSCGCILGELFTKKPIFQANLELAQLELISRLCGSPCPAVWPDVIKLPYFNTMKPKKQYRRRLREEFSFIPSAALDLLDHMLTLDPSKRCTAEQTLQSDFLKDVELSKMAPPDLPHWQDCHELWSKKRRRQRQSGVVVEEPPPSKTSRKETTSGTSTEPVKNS
T2 sequence (O75909 with tags, fused parts or gaps partner limits assumed): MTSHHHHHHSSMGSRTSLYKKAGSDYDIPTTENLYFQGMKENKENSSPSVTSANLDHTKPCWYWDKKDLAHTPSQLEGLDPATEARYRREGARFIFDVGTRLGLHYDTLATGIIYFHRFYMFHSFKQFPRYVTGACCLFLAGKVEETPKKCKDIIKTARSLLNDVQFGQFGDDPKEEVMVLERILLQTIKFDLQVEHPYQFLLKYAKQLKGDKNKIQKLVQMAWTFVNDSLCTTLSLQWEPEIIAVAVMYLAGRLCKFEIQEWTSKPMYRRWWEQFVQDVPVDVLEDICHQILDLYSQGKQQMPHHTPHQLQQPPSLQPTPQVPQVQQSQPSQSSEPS
Text: In the context of the present invention, the term “IC50 CDK12 hATP” refers to the IC50 values obtained according to the assay described in this section (2.2) herein below, i.e. the IC50 values for the inhibition of CDK12 at high ATP.
CDK12/CycK-inhibitory activity of compounds of the present invention at 2 millimol/L adenosine-tri-phosphate (ATP) was quantified employing the TR-FRET (TR-FRET=Time Resolved Fluorescence Energy Transfer) based CDK12/CycK activity inhibition assay as described in the following paragraphs.
A complex of human recombinant CDK12 and human recombinant CycK (both N-terminally His-tagged, expression and purification as described above) was used as enzyme. As substrate for the kinase reaction biotinylated peptide biotin-Ahx-KFELLPTPPLSPSRRSGL (C-terminus in amid form) was used which can be purchased e.g. form the company Biosyntan (Berlin-Buch, Germany).
For the assay 50 nanoL of a 100 fold concentrated solution of the test compound in DMSO was pipetted into either a black low volume 384 well microtiter plate or a black 1536 well microtiter plate (both Greiner Bio-One, Frickenhausen, Germany), 2 microL of a solution of CDK12/CycK in aqueous assay buffer [25 millimol/L HEPES pH 7.5, 20 millimol/L MgCl2, 5 millimol/L ß-glycerophosphate, 2 millimol/L EGTA, 1.0 millimol/L dithiothreitol, 0.01% (v/v) Nonidet-P40 (Sigma), 0.01% (w/v) bovine serum albumin] were added and the mixture was incubated for 15 min at 22° C. to allow pre-binding of the test compounds to the enzyme before the start of the kinase reaction. Then the kinase reaction was started by the addition of 3 microL of a solution ATP (3.33 millimol/L=> final conc. in the 5 microL assay volume is 2 millimol/L) and substrate (1.67 micromol/L=> final conc. in the 5 microL assay volume is 1 micromol/L) in assay buffer and the resulting mixture was incubated for a reaction time of 60 min at 22° C. The concentration of CDK12/CycK was adjusted depending of the activity of the enzyme lot and was chosen appropriate to have the assay in the linear range, typical concentrations were about 0.75 nanomol/L. The reaction was stopped by the addition of 3 microL of a solution of TR-FRET detection reagents (125 nanomol/L streptavidine-XL665 [Cisbio Bioassays, Codolet, France] and 0.67 nanomol/L anti-Phospho-c-Myc (Ser 62) (E1J4K)-antibody from Cell Signalling [#13748] and 2 nanomol/L LANCE EU-W1024 labeled anti-rabbit IgG antibody [Perkin-Elmer, product no. 0083]) in an aqueous EDTA-solution (133 millimol/L EDTA, 0.27% (w/v) bovine serum albumin in 66.7 millimol/L HEPES pH 7.5).
as §1, with “Pherastar FS” for “Pherastar”

T1 sequence (P50750 whole entry): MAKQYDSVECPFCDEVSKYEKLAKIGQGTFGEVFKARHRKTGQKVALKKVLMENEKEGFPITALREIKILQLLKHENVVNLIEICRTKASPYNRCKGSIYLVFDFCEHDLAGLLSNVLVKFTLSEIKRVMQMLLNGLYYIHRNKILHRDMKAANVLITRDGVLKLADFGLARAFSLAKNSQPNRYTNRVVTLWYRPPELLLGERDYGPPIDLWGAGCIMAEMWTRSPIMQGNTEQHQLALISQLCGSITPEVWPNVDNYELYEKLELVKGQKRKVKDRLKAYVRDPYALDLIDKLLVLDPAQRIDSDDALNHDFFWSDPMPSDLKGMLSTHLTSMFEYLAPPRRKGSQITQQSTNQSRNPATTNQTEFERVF
T1 sequence (O60563 whole entry partner): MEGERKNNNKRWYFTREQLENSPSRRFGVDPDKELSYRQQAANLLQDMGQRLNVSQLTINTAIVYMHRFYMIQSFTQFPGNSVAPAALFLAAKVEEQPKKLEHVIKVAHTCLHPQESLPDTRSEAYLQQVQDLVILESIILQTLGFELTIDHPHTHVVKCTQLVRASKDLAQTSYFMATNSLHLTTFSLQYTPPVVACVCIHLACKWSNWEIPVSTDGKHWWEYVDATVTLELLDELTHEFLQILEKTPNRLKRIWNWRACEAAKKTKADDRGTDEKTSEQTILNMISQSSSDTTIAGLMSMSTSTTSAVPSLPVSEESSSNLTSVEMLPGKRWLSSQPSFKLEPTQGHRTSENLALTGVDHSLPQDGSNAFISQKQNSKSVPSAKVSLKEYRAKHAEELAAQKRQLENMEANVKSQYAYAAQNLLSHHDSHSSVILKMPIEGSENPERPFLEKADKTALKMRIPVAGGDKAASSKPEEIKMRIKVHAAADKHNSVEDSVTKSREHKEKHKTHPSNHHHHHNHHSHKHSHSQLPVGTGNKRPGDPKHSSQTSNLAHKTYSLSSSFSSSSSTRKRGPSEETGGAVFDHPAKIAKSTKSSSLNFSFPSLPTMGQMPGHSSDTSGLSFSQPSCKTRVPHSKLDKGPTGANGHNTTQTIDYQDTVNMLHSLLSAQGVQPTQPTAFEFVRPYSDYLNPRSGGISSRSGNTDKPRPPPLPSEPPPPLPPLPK

IC50 [1] [µM] | IC50 [2] [µM] | SMILES
> 20 | 5.11 | Brc1cnc2c(NCc3nc4ccccc4[nH]3)nc(N3CCOCC3)nn12 [Example 1, N-[(1H-benzimidazol-2-yl)methyl]-7-bromo-2-(morpholin-4-yl)imidazo[2,1-f][1,2,4]triazin-4-amine]
> 20 | 6.98 | N#Cc1cnc2c(NCc3nc4ccccc4[nH]3)nc(N3CCOCC3)nn12 [Example 2, 4-{[(1H-benzimidazol-2-yl)methyl]amino}-2-(morpholin-4-yl)imidazo[2,1-f][1,2,4]triazine-7-carbonitrile]
> 20 | > 20 | Fc1cccc(-c2cnc3c(NCc4nc5ccccc5[nH]4)nc(N4CCOCC4)nn23)c1 [Example 3, N-[(1H-benzimidazol-2-yl)methyl]-7-(3-fluorophenyl)-2-(morpholin-4-yl)imidazo[2,1-f][1,2,4]triazin-4-amine]
17.7 | 0.99 | C[C@@H]1CN(c2nc(NCc3nc4ccccc4[nH]3)c3ncc(Br)n3n2)C[C@H](C)O1 [Example 4, N-[(1H-benzimidazol-2-yl)methyl]-7-bromo-2-[rel-(2R,6S)-2,6-dimethylmorpholin-4-yl]imidazo[2,1-f][1,2,4]triazin-4-amine]
3.47 | 0.137 | C[C@@H]1CN(c2nc(NCc3nc4c(F)c(F)ccc4[nH]3)c3ncc(Br)n3n2)C[C@H](C)O1 [Example 5, 7-bromo-N-[(4,5-difluoro-1H-benzimidazol-2-yl)methyl]-2-[rel-(2R,6S)-2,6-dimethylmorpholin-4-yl]imidazo[2,1-f][1,2,4]triazin-4-amine]
> 20 | > 18.6 | CN1CCN(c2nc(NCc3nc4ccccc4[nH]3)c3ncc(Br)n3n2)CC1 [Example 6, N-[(1H-benzimidazol-2-yl)methyl]-7-bromo-2-(4-methylpiperazin-1-yl)imidazo[2,1-f][1,2,4]triazin-4-amine]
9.06 | 1.26 | Fc1ccc2[nH]c(CNc3nc(N4CCOCC4)nn4c(Br)cnc34)nc2c1F [Example 7, 7-bromo-N-[(4,5-difluoro-1H-benzimidazol-2-yl)methyl]-2-(morpholin-4-yl)imidazo[2,1-f][1,2,4]triazin-4-amine]
> 20 | 5.65 | Brc1cnc2c(NCc3nc4ccccc4[nH]3)nc(N3CCNCC3)nn12 [Example 8, N-[(1H-benzimidazol-2-yl)methyl]-7-bromo-2-(piperazin-1-yl)imidazo[2,1-f][1,2,4]triazin-4-amine]
> 20 | 4.9 | C[C@@H]1CN(c2nc(NCc3nc4ccccc4[nH]3)c3ncc(Br)n3n2)C[C@H](C)N1 [Example 9, N-[(1H-benzimidazol-2-yl)methyl]-7-bromo-2-[rel-(3R,5S)-3,5-dimethylpiperazin-1-yl]imidazo[2,1-f][1,2,4]triazin-4-amine]
12.4 | 1.37 | Fc1ccc2[nH]c(CNc3nc(N4CCNCC4)nn4c(Br)cnc34)nc2c1F [Example 10, 7-bromo-N-[(4,5-difluoro-1H-benzimidazol-2-yl)methyl]-2-(piperazin-1-yl)imidazo[2,1-f][1,2,4]triazin-4-amine]
10.8 | 0.579 | C[C@@H]1CN(c2nc(NCc3nc4c(F)c(F)ccc4[nH]3)c3ncc(Br)n3n2)C[C@H](C)N1 [Example 11, 7-bromo-N-[(4,5-difluoro-1H-benzimidazol-2-yl)methyl]-2-[rel-(3R,5S)-3,5-dimethylpiperazin-1-yl]imidazo[2,1-f][1,2,4]triazin-4-amine]
> 20 | 4.71 | Fc1cccc2[nH]c(CNc3nc(N4CCOCC4)nn4c(Br)cnc34)nc12 [Example 12, 7-bromo-N-[(4-fluoro-1H-benzimidazol-2-yl)methyl]-2-(morpholin-4-yl)imidazo[2,1-f][1,2,4]triazin-4-amine]
> 18.9 | 1.33 | COc1cccc2[nH]c(CNc3nc(N4CCOCC4)nn4c(Br)cnc34)nc12 [Example 13, 7-bromo-N-[(4-methoxy-1H-benzimidazol-2-yl)methyl]-2-(morpholin-4-yl)imidazo[2,1-f][1,2,4]triazin-4-amine]
> 18.1 | 2.01 | COc1cccc2[nH]c(CNc3nc(N4C[C@@H](C)N[C@@H](C)C4)nn4c(Br)cnc34)nc12 [Example 14, 7-bromo-2-[rel-(3R,5S)-3,5-dimethylpiperazin-1-yl]-N-[(4-methoxy-1H-benzimidazol-2-yl)methyl]imidazo[2,1-f][1,2,4]triazin-4-amine]
> 20 | 2.09 | COc1cccc2[nH]c(CNc3nc(N4CCNCC4)nn4c(Br)cnc34)nc12 [Example 15, 7-bromo-N-[(4-methoxy-1H-benzimidazol-2-yl)methyl]-2-(piperazin-1-yl)imidazo[2,1-f][1,2,4]triazin-4-amine]
> 20 | 6.29 | COc1cccc2[nH]c(CNc3nc(N4CCN(C)CC4)nn4c(Br)cnc34)nc12.O=CO [Example 16, 7-bromo-N-[(4-methoxy-1H-benzimidazol-2-yl)methyl]-2-(4-methylpiperazin-1-yl)imidazo[2,1-f][1,2,4]triazin-4-amine Formate (1/1)]
